In ChEMBL document CHEMBL4840352 (J Med Chem, 2021):
Activity calls are given as the source filed them. The calls are words filed in the database; no cut-off is given here.

Columns and labels:
[1] = system: Receptor-type tyrosine-protein kinase FLT3 (Homo sapiens), P36888 [UNDEFINED MUTATION]; conditions: dose 1000.0 nM
Description: Inhibition of FLT3 ITD mutant (unknown origin) at 1000 nM relative to control

MOLM-13 [2] = test: Induction of apoptosis in human MOLM-13 cells after 48 hrs by Annexin-V/PI staining based flow cytometry; type: functional, cell-based; conditions: dose 1.25-10 nM
[3] = biological target: Tyrosine-protein kinase ITK/TSK (Homo sapiens) (UniProt Q08881); conditions: dose 1000.0 nM
Description: Inhibition of ITK (unknown origin) at 1000 nM relative to control

[4] = biological target: Mitogen-activated protein kinase 1 (Homo sapiens) (UniProt P28482); test: Inhibition of MAPK2 (unknown origin) at 1000 nM relative to control
Chain of Mitogen-activated protein kinase 1 (Homo sapiens) (P28482 whole entry): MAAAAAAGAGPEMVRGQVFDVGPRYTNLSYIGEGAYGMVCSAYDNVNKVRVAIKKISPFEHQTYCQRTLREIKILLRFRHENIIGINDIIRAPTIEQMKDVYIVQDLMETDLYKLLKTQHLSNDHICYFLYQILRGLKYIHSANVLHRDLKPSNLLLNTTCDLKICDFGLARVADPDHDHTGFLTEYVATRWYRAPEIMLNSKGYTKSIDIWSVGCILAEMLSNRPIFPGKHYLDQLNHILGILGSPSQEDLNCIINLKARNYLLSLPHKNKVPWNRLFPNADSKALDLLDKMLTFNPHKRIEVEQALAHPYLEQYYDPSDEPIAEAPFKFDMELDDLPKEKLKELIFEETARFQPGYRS

[5] = biological target: Aurora kinase A (Homo sapiens) (UniProt O14965); test: Inhibition of AURORA-A (unknown origin) at 1000 nM relative to control
Chain of Aurora kinase A (Homo sapiens) (O14965 whole entry): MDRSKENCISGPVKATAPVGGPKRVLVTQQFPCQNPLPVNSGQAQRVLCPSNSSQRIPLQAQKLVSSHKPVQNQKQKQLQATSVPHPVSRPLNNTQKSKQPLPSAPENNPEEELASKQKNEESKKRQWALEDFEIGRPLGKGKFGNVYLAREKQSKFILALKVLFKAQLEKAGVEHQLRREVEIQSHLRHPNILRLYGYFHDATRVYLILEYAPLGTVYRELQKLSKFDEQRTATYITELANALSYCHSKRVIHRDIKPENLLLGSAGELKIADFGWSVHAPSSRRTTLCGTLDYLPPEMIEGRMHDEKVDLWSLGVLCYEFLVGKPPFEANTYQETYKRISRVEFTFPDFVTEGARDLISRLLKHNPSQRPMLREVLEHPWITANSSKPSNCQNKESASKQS

MOLM-13 [6] = test: Induction of apoptosis in human MOLM-13 cells assessed as upregulation of cleaved caspase-3 level at 15 nM by Western blot analysis; type: functional, cell-based; conditions: time 0-12 hrs, TDE = time-dependent effect
[7] = biological target: Mast/stem cell growth factor receptor Kit (Homo sapiens) (UniProt P10721); test: Induction of KIT degradation in human MOLM-13 cells at 0 to 25 nM after 24 hrs by Western blot analysis; type: cell-based; conditions: dose 0-25 nM
Chain of Mast/stem cell growth factor receptor Kit (Homo sapiens) (P10721 whole entry): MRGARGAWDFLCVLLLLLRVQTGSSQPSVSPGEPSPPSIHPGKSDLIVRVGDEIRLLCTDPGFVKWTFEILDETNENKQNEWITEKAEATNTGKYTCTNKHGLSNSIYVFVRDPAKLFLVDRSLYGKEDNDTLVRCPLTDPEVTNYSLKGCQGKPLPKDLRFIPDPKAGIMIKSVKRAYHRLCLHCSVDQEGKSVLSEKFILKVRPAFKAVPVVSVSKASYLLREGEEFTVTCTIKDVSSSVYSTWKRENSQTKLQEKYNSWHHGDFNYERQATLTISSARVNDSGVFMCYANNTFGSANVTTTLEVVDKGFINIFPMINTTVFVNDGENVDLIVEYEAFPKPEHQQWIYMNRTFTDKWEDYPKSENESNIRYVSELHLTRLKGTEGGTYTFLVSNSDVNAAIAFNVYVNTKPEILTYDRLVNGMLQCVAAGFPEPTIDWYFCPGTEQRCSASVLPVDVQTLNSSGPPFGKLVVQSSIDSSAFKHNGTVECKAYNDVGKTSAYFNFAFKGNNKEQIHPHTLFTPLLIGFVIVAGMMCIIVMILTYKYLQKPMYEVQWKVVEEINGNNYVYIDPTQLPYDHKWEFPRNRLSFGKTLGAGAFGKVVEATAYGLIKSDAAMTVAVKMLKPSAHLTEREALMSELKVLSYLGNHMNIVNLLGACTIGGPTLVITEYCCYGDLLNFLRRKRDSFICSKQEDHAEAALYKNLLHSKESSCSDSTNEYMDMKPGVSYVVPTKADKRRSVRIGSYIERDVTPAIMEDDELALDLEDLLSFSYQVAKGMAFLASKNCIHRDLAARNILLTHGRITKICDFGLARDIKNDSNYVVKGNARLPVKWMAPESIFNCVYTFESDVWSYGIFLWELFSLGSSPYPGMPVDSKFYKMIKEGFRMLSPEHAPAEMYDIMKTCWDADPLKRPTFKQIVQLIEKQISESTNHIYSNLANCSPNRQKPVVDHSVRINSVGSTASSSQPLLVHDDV

[8] = biological target: Glycogen synthase kinase-3 alpha (Homo sapiens) (UniProt P49840); test: Inhibition of GSK3alpha (unknown origin) at 1000 nM relative to control
[9] = biological target: ALK tyrosine kinase receptor (Homo sapiens) (UniProt Q9UM73); test: Inhibition of ALK (unknown origin) at 1000 nM relative to control
[10] = biological target: RAC-alpha serine/threonine-protein kinase (Homo sapiens) (UniProt P31749); test: Inhibition of AKT1 (unknown origin) at 1000 nM relative to control
[11] = biological target: Receptor-type tyrosine-protein kinase FLT3 (Homo sapiens) (UniProt P36888); test: Inhibition of FLT3 in human MOLM-13 cells assessed as reduction in ERK phosphorylation at 15 nM by Western blot analysis; type: cell-based; conditions: time 0-12 hrs, TDE = time-dependent effect
[12] = biological target: Casein kinase I isoform alpha-like (Homo sapiens) (UniProt Q8N752); test: Inhibition of CK1A1 (unknown origin) at 1000 nM relative to control
MV4-11 = test: Induction of apoptosis in human MV4-11 cells assessed as upregulation of cleaved caspase-3 level at 15 nM by Western blot analysis; type: functional, cell-based; conditions: time 0-12 hrs, TDE = time-dependent effect
[13] = biological target: Mitogen-activated protein kinase 1 (Homo sapiens) (UniProt P28482); test: Inhibition of ERK2 (unknown origin) at 1000 nM relative to control
[14] = biological target: Receptor-type tyrosine-protein kinase FLT3 (Homo sapiens) (UniProt P36888); test: Inhibition of FLT3 in human MV4-11 cells assessed as reduction in AKT phosphorylation at 15 nM by Western blot analysis; type: cell-based; conditions: time 0-12 hrs, TDE = time-dependent effect
[15] = biological target: Receptor-type tyrosine-protein kinase FLT3 (Homo sapiens) (UniProt P36888); test: Inhibition of FLT3 in human MV4-11 cells assessed as reduction in FLT3 phosphorylation at 15 nM by Western blot analysis; type: cell-based; conditions: time 0-12 hrs, TDE = time-dependent effect
[16] = biological target: Proto-oncogene tyrosine-protein kinase receptor Ret (Homo sapiens) (UniProt P07949); conditions: dose 1000.0 nM
Chain of Proto-oncogene tyrosine-protein kinase receptor Ret (Homo sapiens) (P07949 whole entry): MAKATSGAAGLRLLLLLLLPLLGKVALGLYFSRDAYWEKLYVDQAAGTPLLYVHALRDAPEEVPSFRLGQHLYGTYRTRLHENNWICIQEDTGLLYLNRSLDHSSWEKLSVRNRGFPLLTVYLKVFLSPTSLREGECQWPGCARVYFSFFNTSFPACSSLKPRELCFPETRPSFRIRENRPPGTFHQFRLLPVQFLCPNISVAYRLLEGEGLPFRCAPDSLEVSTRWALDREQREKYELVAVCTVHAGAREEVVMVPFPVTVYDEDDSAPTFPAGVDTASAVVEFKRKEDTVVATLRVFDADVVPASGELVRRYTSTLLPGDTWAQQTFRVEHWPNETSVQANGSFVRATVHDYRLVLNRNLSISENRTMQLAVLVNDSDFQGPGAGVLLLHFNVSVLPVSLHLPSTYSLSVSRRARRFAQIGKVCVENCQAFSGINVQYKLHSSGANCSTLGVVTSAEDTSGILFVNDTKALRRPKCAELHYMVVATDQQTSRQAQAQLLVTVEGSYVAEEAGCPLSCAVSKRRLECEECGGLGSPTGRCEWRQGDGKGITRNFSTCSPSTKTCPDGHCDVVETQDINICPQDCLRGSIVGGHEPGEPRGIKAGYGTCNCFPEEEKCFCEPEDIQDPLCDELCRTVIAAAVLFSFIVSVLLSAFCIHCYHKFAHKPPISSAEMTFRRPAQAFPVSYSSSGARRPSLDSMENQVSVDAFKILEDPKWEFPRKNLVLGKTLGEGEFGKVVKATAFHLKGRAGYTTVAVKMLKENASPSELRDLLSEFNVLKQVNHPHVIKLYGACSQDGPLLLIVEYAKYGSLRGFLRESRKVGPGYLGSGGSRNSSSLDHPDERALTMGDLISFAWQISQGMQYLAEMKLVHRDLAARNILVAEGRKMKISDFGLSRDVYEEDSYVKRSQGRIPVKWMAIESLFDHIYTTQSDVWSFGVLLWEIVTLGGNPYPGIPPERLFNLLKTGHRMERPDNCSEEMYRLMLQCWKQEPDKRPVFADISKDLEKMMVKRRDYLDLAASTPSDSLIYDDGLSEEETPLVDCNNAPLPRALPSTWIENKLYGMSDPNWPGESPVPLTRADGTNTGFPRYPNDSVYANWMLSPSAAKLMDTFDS
Description: Inhibition of RET (unknown origin) at 1000 nM relative to control

[17] = biological target: Receptor-type tyrosine-protein kinase FLT3 (Homo sapiens) (UniProt P36888); test: Inhibition of FLT3 in human MOLM-13 cells assessed as reduction in FLT3 phosphorylation at 15 nM by Western blot analysis; type: cell-based; conditions: time 0-12 hrs, TDE = time-dependent effect
[18] = biological target: Serine/threonine-protein kinase MARK1 (Homo sapiens) (UniProt Q9P0L2); test: Inhibition of MARK1 (unknown origin) at 1000 nM relative to control
[19] = biological target: Rho-associated protein kinase 1 (Homo sapiens) (UniProt Q13464); test: Inhibition of ROCK1 (unknown origin) at 1000 nM relative to control
[20] = biological target: Maternal embryonic leucine zipper kinase (Homo sapiens) (UniProt Q14680); test: Inhibition of MELK (unknown origin) at 1000 nM relative to control
[21] = biological target: Fibroblast growth factor receptor 2 (Homo sapiens) (UniProt P21802); conditions: dose 1000.0 nM
Description: Inhibition of FGFR2 (unknown origin) at 1000 nM relative to control

MOLM-13 [22] = test: Antiproliferative activity against human MOLM-13 cells incubated for 48 hrs by CCK-8 assay; type: functional, cell-based; conditions: MOLM-13, 48 h
[23] = biological target: Receptor tyrosine-protein kinase erbB-4 (Homo sapiens) (UniProt Q15303); conditions: dose 1000.0 nM
Description: Inhibition of HER4 (unknown origin) at 1000 nM relative to control

[24] = biological target: Mast/stem cell growth factor receptor Kit (Homo sapiens) (UniProt P10721); test: Inhibition of KIT in human MV4-11 cells assessed as reduction in PI3K phosphorylation at 5 to 25 nM after 24 hrs by Western blot analysis; type: cell-based; conditions: dose 5-25 nM
[25] = biological target: Receptor-type tyrosine-protein kinase FLT3 (Homo sapiens) (UniProt P36888); test: Inhibition of FLT3 in human MV4-11 cells assessed as reduction in STAT5 phosphorylation at 15 nM by Western blot analysis; type: cell-based; conditions: time 0-12 hrs, TDE = time-dependent effect
[26] = system: Receptor-type tyrosine-protein kinase FLT3 (Homo sapiens), P36888 [UNDEFINED MUTATION]; test: Induction of FLT3-ITD degradation in human MV4-11 cells after 24 hrs by Western blot analysis; type: cell-based
[27] = system: Receptor-type tyrosine-protein kinase FLT3 (Homo sapiens), P36888 [D835Y]; conditions: dose 1000.0 nM
Description: Inhibition of FLT3 D835Y mutant (unknown origin) at 1000 nM relative to control

[28] = biological target: Tyrosine-protein kinase receptor UFO (Homo sapiens) (UniProt P30530); conditions: dose 1000.0 nM
Description: Inhibition of AXL (unknown origin) at 1000 nM relative to control

[29] = system: Receptor-type tyrosine-protein kinase FLT3 (Homo sapiens), P36888 [UNDEFINED MUTATION]; test: Induction of FLT3-ITD degradation in human MV4-11 cells at 20 nM pretreated with dov for 2 hrs followed compound addition for 6 hrs by Western blot analysis; type: cell-based
[30] = biological target: Mitogen-activated protein kinase kinase kinase 14 (Homo sapiens) (UniProt Q99558); test: Inhibition of NIK (unknown origin) at 1000 nM relative to control
Chain of Mitogen-activated protein kinase kinase kinase 14 (Homo sapiens) (Q99558 whole entry, looked up): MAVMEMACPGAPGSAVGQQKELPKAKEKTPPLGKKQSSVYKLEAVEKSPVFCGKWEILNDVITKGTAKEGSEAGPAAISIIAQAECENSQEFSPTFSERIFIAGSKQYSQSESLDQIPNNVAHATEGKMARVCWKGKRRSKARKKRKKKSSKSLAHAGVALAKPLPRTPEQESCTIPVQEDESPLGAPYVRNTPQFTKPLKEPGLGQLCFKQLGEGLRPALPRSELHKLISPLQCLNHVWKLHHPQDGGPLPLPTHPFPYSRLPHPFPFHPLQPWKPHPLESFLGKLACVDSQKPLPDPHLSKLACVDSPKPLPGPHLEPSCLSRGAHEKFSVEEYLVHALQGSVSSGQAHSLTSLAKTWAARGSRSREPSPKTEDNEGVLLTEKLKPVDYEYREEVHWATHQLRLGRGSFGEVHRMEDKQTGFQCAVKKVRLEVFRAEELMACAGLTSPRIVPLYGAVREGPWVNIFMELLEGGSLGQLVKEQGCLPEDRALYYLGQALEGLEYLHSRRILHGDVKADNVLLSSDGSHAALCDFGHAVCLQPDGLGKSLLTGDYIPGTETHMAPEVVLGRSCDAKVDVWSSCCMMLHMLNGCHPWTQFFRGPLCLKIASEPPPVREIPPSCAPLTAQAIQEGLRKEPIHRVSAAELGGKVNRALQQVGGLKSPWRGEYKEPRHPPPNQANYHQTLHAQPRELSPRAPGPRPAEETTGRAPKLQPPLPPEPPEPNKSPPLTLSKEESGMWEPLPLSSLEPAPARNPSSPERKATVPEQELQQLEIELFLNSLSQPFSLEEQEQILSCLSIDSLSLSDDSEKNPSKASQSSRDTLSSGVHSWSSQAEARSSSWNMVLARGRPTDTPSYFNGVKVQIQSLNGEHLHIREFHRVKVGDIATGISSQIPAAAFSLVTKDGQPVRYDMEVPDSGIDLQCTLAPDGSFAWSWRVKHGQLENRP

[31] = biological target: Mast/stem cell growth factor receptor Kit (Homo sapiens) (UniProt P10721); test: Inhibition of KIT in human MV4-11 cells assessed as reduction in STAT3 phosphorylation at 5 to 25 nM after 24 hrs by Western blot analysis; type: cell-based; conditions: dose 5-25 nM
[32] = biological target: Homeodomain-interacting protein kinase 1 (Homo sapiens) (UniProt Q86Z02); conditions: dose 1000.0 nM
Chain of Homeodomain-interacting protein kinase 1 (Homo sapiens) (Q86Z02 whole entry, looked up): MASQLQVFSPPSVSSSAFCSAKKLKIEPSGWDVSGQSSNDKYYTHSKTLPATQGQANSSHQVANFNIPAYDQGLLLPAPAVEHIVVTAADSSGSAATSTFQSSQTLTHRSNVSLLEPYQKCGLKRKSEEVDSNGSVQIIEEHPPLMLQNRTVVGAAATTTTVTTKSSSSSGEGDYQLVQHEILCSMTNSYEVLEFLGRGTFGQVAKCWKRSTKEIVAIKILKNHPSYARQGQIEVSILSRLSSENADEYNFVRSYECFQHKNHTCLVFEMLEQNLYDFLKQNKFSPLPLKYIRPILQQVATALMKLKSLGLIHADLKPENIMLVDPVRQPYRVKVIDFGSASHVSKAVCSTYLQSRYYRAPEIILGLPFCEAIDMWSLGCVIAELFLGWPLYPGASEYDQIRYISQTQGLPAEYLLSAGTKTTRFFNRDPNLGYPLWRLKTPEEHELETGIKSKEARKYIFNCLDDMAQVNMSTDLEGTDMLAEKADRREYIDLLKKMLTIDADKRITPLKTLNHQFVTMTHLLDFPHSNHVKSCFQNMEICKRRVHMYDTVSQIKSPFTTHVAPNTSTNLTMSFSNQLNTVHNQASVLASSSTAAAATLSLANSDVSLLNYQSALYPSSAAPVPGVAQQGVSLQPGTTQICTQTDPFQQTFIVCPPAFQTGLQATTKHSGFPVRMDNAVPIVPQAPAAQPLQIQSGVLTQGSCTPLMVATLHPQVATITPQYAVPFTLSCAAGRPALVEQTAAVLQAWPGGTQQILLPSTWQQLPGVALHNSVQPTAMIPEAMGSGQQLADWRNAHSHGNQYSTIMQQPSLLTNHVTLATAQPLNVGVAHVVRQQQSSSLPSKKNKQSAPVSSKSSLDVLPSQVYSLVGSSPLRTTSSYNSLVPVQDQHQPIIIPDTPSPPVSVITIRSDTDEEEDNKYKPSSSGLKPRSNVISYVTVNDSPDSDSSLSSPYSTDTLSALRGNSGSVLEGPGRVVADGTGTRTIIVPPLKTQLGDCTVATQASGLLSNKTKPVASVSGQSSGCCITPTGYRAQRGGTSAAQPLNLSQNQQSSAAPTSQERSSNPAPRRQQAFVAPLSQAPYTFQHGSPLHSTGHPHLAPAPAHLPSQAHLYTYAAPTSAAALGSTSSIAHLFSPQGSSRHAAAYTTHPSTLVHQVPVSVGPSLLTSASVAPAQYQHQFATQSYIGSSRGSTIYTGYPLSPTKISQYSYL
Description: Inhibition of HIPK1 (unknown origin) at 1000 nM relative to control

[33] = biological target: Mast/stem cell growth factor receptor Kit (Homo sapiens) (UniProt P10721); test: Inhibition of KIT in human MOLM-13 cells assessed as reduction in STAT3 phosphorylation at 5 to 25 nM after 24 hrs by Western blot analysis; type: cell-based; conditions: dose 5-25 nM
[34] = system: Receptor-type tyrosine-protein kinase FLT3 (Homo sapiens), P36888 [UNDEFINED MUTATION]; test: Induction of FLT3-ITD degradation in human MV4-11 cells assessed as accumulation of ubiquitinated FLT3-ITD at 15 nM preincubated for 4 hrs followed by MG132 addition for 2 hrs by immunoprecipitation assay; type: cell-based; conditions: time 6.0 hrs
[35] = biological target: Proto-oncogene tyrosine-protein kinase Src (Homo sapiens) (UniProt P12931); test: Inhibition of SRC (unknown origin) at 1000 nM relative to control
[36] = biological target: Tyrosine-protein kinase JAK3 (Homo sapiens) (UniProt P52333); test: Inhibition of JAK3 (unknown origin) at 1000 nM relative to control

- inhibition [1]: 98%
- inhibition [3]: 42%
- inhibition [4]: 54%
- inhibition [5]: 17%
- Activity [7]: Active
- inhibition [8]: 3%
- inhibition [9]: 25%
- inhibition [10]: 7%
- inhibition [11]: Tde
- inhibition [12]: 1%
- inhibition [13]: 38%
- inhibition [14]: Tde
- inhibition [15]: Tde
- inhibition [16]: 39%
- inhibition [17]: Tde
- inhibition [18]: 17%
- inhibition [19]: 4%
- inhibition [20]: 11%
- inhibition [21]: 34%
- IC50 (MOLM-13 [22]): 9.5 nM
- inhibition [23]: 14%
- inhibition [24]: Active
- inhibition [25]: Tde
- Activity [26]: Dose-Dependent Effect
- inhibition [27]: 95%
- inhibition [28]: 20%
- Activity [29]: inactive
- inhibition [30]: 0%
- inhibition [31]: Active
- inhibition [32]: 5%
- inhibition [33]: Active
- Activity [34]: Active
- inhibition [35]: 37%
- inhibition [36]: 1%
Compound: Nc1c(-c2nc3cc(N4CCN(C(=O)CCCCCNc5cccc6c5C(=O)N(C5CCC(=O)NC5=O)C6=O)CC4)ccc3[nH]2)c(=O)[nH]c2cccc(F)c12 (configuration not stated)
- Activity (MOLM-13 [2]): Dose-Dependent Effect
- Activity (MOLM-13 [6]): Tde
- Activity (MV4-11): Tde
